Data published in US20150141506A1, “INDANE DIMERS FOR USE IN THE TREATMENT OF AUTOIMMUNE INFLAMMATORY DISEASE” (Venantius Limited, priority 2012, published 2015).
Values after ≈ are worked out from the molar mass of the structure shown. “Also recorded” adds a separate entry of the source. Read-outs that look alike come from different tables or passages of the source. Marks after values point to notes of the source that are not given here.

Tests used:
[1] = Solubility in Milli-RO water and pH buffers; type: physicochemical; settings: for aqueous solubility, in words: free acid enantiomers
Protocol: The sodium salt, potassium salt, calcium salt, α-methylbenzylamine salt and N-Methyl-(D)-Glucamine salt were synthesised.
The solubility of the four compounds were determined: […]

[2] = Partition coefficient (Log10 POW) by HPLC method; type: physicochemical; settings: reverse phase C18 HPLC; for Log10 POW, Acid: acidic pH; for Log10 POW, Basic: alkaline pH; for Log10 POW, Neutral: neutral pH
[3] = tested on: IL2 release from Jurkat cells; assay: Effect of compounds on IL-2 secretion in T lymphocytes (Jurkat 6.1, anti-CD3/anti-CD28 stimulated, ELISA); type: cell-based; settings: 30 min pre-treatment, 24 h, DMSO control 320.67 (plate 2), 338.25 (plate 3)
Protocol: The T cell line Jurkat 6.1 (ATCC) was used. Cells were pre-treated for 30 min with 1 μM or 10 μM of the respective compound and then stimulated with plate-bound anti-CD3 (BD Pharmingen) and anti-CD28 (AnCell). DMSO was used as vehicle control. […] After 24 hs the supernatant was collected and IL-2 secretion was measured by ELISA.
Compounds were prepared by dissolution in DMSO to yield final concentrations of 1 and 10 μg/ml

[4] = tested on: 5% DSS colitis in BALB/c mice; assay: Acute murine 5% DSS colitis model, Experiment 1; type: in vivo; settings: for activity in 5% DSS murine colitis (DAI), in words: 30 mg/kg p.o. daily for 7 days
Description: The study is widely used as a model for studying the pathogenesis of UC and also for screening new therapeutic interventions for the treatment of UC.
In these studies, an acute colitis model was used, with 5% DSS administered in the drinking water of BALB/c mice. This dosage regime induces severe acute colitis, by days 7-8 mice had overt rectal bleeding and marked weight loss; unless sacrificed beforehand, all mice would have died by days 10-12.
Specific Pathogen-Free BALB/c mice, 6-8 weeks of age, were obtained from a commercial supplier (Harlan UK). Mice were fed irradiated diet and housed in individually ventilated cages (Tecniplast UK) under positive pressure.
DSS (5%) was dissolved in drinking water. Compounds were administered orally at a dose of 10 mg/kg or 30 mg/kg on days 0-7, and mice were culled on day 8 or day 9, depending on the severity of the disease. The mice were checked each day for morbidity and the weight of individual mice was recorded. Induction of colitis was determined upon autopsy, length of colon and histology. Colons were recovered and stored at −20° C. for immunological analysis. All of the compounds and experimental groups are randomly alphabetically labelled. Throughout experiments all data recording was performed in a blind manner. The codes on boxes/groups were not broken until after the data was analysed i.e. boxes labelled A, B, C etc were identified as untreated, DSS-treated, or DSS+compound-treated.
To quantify the extent of colitis, a disease activity index (DAI) was determined based on weight loss, faecal blood and stool consistency. A score was given for each parameter, with the sum of the scores used as the DAI. For each treatment group n=8.
All compounds were prepared for oral gavage (0.1 mL per os (p.o.) per 10 g body weight) as a suspension in 0.5% carboxymethyl cellulose/2% Tween 80, at a dose of 3-30 mg/Kg.

[5] = tested on: 5% DSS colitis in BDF 1 mice; assay: 5% DSS murine colitis, Experiment 2 (Method 2); type: in vivo; settings: day 7, 10 ml/kg oral gavage daily day 0-6, 5-ASA 100 mg/kg; for DAI versus vehicle: 31 at 2 mg/ml, 47 at 4 mg/ml
Description: A total of 90 BDF 1 (H. Pylori-free, murine norovirus-free) male mice (Harlan Laboratories, UK) were used in the study. Animals were 8-10 weeks old on supply and used at 10-12 weeks of age. All mice were held in individually ventilated cages (IVCs) in an SPF (Specific Pathogen Free) barrier unit. The animals were identified by numbered cages and by ear punches.
Mice were randomised into study groups. All the mice in any one cage received the same treatment and were ear punched for identification purposes. Daily body weight measurements were used to calculate the volume of test item or vehicle administered in the applicable groups.
DSS (MP Biomedicals 0216011090, lot# M2709) was prepared as a 5% (w/v) solution in the drinking water and made fresh daily on days 0 to 6 inclusive. DSS was administered from day 0 to day 7.
Test items were stored at −20° C. until the initiation of the study. Each test item was formulated as a homogenous suspension in 0.5% carboxymethyl cellulose (CMC, Sigma C4888) in sterile water (Sigma W3500, lot# RNBC1419), using an Ultraturax homogeniser, on study day −1. Compound 31 was formulated at 2 mg/ml and 47 was formulated at 4 mg/ml. After formulation the test item and the vehicle stocks anonymised with a letter code. All solutions were stored at 4° C. during the study, with 3.8 ml of each suspension being dispensed daily. Test items were administered by oral gavage, daily at 09.00 hrs, at 10 ml/kg, from study day 0 to study day 6.
5-ASA (5-Aminosalicylic acid, Sigma A3537, lot#051M1878V) was aliquoted into pre-weighed amounts between 71 and 84 mg. Like test item suspensions, these aliquots were anonymised by a letter code. […]
Any animal was culled if the weight loss was greater than 20%. Animal well-being was monitored daily. Once daily from day 0 until the end of the study, all mice were weighed and assessed for stool consistency, and the presence of overt blood in the stool or around the anus according to the criteria in 2.1 […]

[6] = day 7, 10 mg/kg daily for 7 days, vehicle 9.3±0.51
[7] = day 7, 30 mg/kg p.o. daily for 7 days, vehicle 9.0±0.53

For `O=C(O)c1ccc(C[C@]2(C3=Cc4ccccc4C3)Cc3ccccc3[C@H]2O)cc1` [Compound 5, 4-(((1S,2R)-1-hydroxy-2,3-dihydro-1H,1′H-2,2′-biinden-2-yl)methyl)benzoic acid], the solubility ([1]; Milli-RO water, water, read-out: solubility, Milli-RO H20) was 1.38 µg/mL (≈ 3.61 µM), the “aqueous solubility, in words” value [1] was “limited aqueous solubility” and the solubility ([1]; pH 4.0 buffer, pH 4, aqueous buffer, read-out: solubility, pH 4.0 Buffer) was 0.33 µg/mL (≈ 0.863 µM). For the same compound, the solubility ([1]; pH 7.0 buffer, pH 7, aqueous buffer, read-out: solubility, pH 7.0 Buffer) was 320 µg/mL (≈ 837 µM), the solubility ([1]; pH 9.0 buffer, pH 9, aqueous buffer, read-out: solubility, pH 9.0 Buffer) was 370 µg/mL (≈ 966 µM) and the “Log10 POW, Acid” value [2] was 3.9. For the same compound, the “Log10 POW, Basic” value [2] was 3.7, the “Log10 POW, Neutral” value [2] was 3.7 and the “IL-2 production, absolute values” ([3]; compound 1 uM) was 127.29 pg/mL. For the same compound, the “IL-2 production, absolute values” ([3]; compound 10 uM) was 134.14 pg/mL, the “activity in 5% DSS murine colitis (DAI), in words” value (“activity in 5% DSS murine colitis” below) [4] was “highly active” and the “disease activity index (DAI)” value [4, 6] was “no significant (P>0.05) effect”. The “disease activity index (DAI)” value [4, 7] was 3.2±0.73.
For `C[C@]12C=CC(=O)C=C1CC[C@@H]1[C@@H]2[C@@H](O)C[C@@]2(C)[C@H]1CC[C@]2(O)C(=O)CO` [Prednisolone, reference compound], the “DAI on the day of autopsy versus vehicle controls” value ([4]; 5 mg/kg) was “reduced DAI scores”, the “colon cytokine levels (IL1β, TNFα, IL6)” value ([4]; day 7, Prednisolone 5 mg/kg) was “reduced (p<0.05)” and the “inhibition of colon shortening versus vehicle controls” value ([4]; day 7, Prednisolone 5 mg/kg) was “did have a significant effect”. The “reduction of colonic myeloperoxidase (MPO) activity” value ([4]; day 7, Prednisolone 5 mg/kg) was 54% and the “colon pathology (histology score) relative to vehicle” value ([4]; prednisolone 5 mg/Kg) was “no significant improvement”.
With `O=C(Nc1ccc(O)c(C(=O)O)c1)c1ccc(C[C@@]2(C3=Cc4ccccc4C3)Cc3ccccc3[C@H]2O)cc1` [Compound 47, 2-hydroxy-5-(4-(((1S,2S)-1-hydroxy-2,3-dihydro-1H,1′H-[2,2′-biinden]-2-yl)methyl)benzamido)benzoic acid] the DAI versus vehicle [5] was “reduced DAI comparable or equal to 5ASA”, the “loss of body weight versus vehicle control” value ([5]; 47 formulated at 4 mg/ml) was “does not result in an increase in loss of body weight” and the “IL-2 production, absolute values” ([3]; compound 1 uM) was 99.64 pg/mL. The “IL-2 production, absolute values” ([3]; compound 10 uM) was 98.79 pg/mL.
With `O=C(O)c1ccc(C[C@@]2(C3=Cc4ccccc4C3)Cc3ccccc3[C@@H]2O)cc1` [Compound 4, 4-(((1R,2S)-1-hydroxy-2,3-dihydro-1H,1′H-2,2′-biinden-2-yl)methyl)benzoic acid] the “IL-2 production, absolute values” ([3]; compound 1 uM) was 97.21 pg/mL, the “IL-2 production, absolute values” ([3]; compound 10 uM) was 94.21 pg/mL and the “activity in 5% DSS murine colitis” value [4] was “without activity; also recorded: almost devoid of activity”.
For `O=C(O)c1ccc(C[C@]2(C3=Cc4ccccc4C3)Cc3ccccc3[C@@H]2O)cc1` (single isomer, unassigned) [Compound 3], the “IL-2 production, absolute values” ([3]; compound 1 uM) was 150.07 pg/mL, the “IL-2 production, absolute values” ([3]; compound 10 uM) was 98.57 pg/mL and the “activity in 5% DSS murine colitis” value [4] was “minimal activity”. The “disease activity index (DAI)” value [4, 7] was 5.3±0.6.
For `CNCC(O)C(O)C(O)C(O)CO.O=C(O)c1ccc(C[C@]2(C3=Cc4ccccc4C3)Cc3ccccc3[C@H]2O)cc1` [Compound 7, 6-(Methylamino)hexane-1,2,3,4,5-pentanol 4-(((1S,2R)-1-hydroxy-2,3-dihydro-1H,1′H-2,2′-biinden-2-yl)methyl)benzoate], the “solubility, Milli-RO H20” value ([1]; Milli-RO water, listed as Compound 5 N-Methyl-D-Glucamine salt) was >60,000* μg/mL, the “solubility, pH 4.0 Buffer” value ([1]; pH 4.0 buffer) was 0.14 μg/mL and the “solubility, pH 7.0 Buffer” value ([1]; pH 7.0 buffer, listed as Compound 5 N-Methyl-D-Glucamine salt) was >60,000* μg/mL. For the same compound, the “solubility, pH 9.0 Buffer” value ([1]; pH 9.0 buffer, listed as Compound 5 N-Methyl-D-Glucamine salt) was >60,000* μg/mL, the “Log10 POW, Acid” value [2] was 3.8 and the “Log10 POW, Basic” value [2] was 3.5. For the same compound, the “Log10 POW, Neutral” value [2] was 3.5 and the “disease activity index (DAI)” value [4, 6] was “no significant (P>0.05) effect”.
In the case of `O=C(O)c1ccc(C[C@@]2(C3=Cc4ccccc4C3)Cc3ccccc3[C@H]2O)cc1` (single isomer, unassigned) [Compound 2], the “aqueous solubility, in words” value [1] is reported as “limited aqueous solubility”, the “IL-2 production, absolute values” ([3]; compound 1 uM) is reported as 98.71 pg/mL and the “IL-2 production, absolute values” ([3]; compound 10 uM) is reported as 124.36 pg/mL. The “activity in 5% DSS murine colitis” value [4] was “highly active”, the “potency compared among the four enantiomers, in words” value ([4]; 30 and 10 mg/kg) was “most potent of the four enantiomers” and the “disease activity index (DAI)” value [4, 6] was 2.1±0.7. For the same compound, the “disease activity index (DAI)” value [4, 7] was 2.5±0.71.
With `NCC(=O)O[C@@H]1c2ccccc2C[C@@]1(Cc1ccc(C(=O)O)cc1)C1=Cc2ccccc2C1` [Compound 31, 4-{[(1′S,2′S)-1′-(glycyloxy)-1′,3′-dihydro-1H,2′H-2,2′-biinden-2′-yl]methyl}benzoic acid] the DAI versus vehicle [5] was “reduced DAI comparable or equal to 5ASA”, the “IL-2 production, absolute values” ([3]; compound 1 uM) was 233.38 pg/mL and the “IL-2 production, absolute values” ([3]; compound 10 uM) was 225.63 pg/mL.
